Measured values from patent US10010624B2, “Pyrrolobenzodiazepine-antibody conjugates” (MEDIMMUNE LIMITED, priority 2013, dated 2018).

Test system: K562 human chronic myeloid leukaemia cells
Assay: K562 assay (MTT cytotoxicity of released compounds)
Assay type: cell-based
Conditions: drug incubation 1 hour or 96 hours (not specified which), MTT readout, dose reducing optical density to 50% of control
Method: K562 human chronic myeloid leukaemia cells were maintained in RPM1 1640 medium supplemented with 10% fetal calf serum and 2 mM glutamine at 37° C. in a humidified atmosphere containing 5% CO2 and were incubated with a specified dose of drug for 1 hour or 96 hours at 37° C. in the dark. The incubation was terminated by centrifugation (5 min, 300 g) and the cells were washed once with drug-free medium. Following the appropriate drug treatment, the cells were transferred to 96-well microtiter plates (10^4 cells per well, 8 wells per sample). Plates were then kept in the dark at 37° C. in a humidified atmosphere containing 5% CO2. The assay is based on the ability of viable cells to reduce a yellow soluble tetrazolium salt, 3-(4,5-dimethylthiazol-2-yl)-2,5-diphenyl-2H-tetrazolium bromide (MTT, Aldrich-Sigma), to an insoluble purple formazan precipitate. Following incubation of the plates for 4 days (to allow control cells to increase in number by approximately 10 fold), 20 μL of MTT solution (5 mg/mL in phosphate-buffered saline) was added to each well and the plates further incubated for 5 h. The plates were then centrifuged for 5 min at 300 g and the bulk of the medium pipetted from the cell pellet leaving 10-20 μL per well. […] The optical density was then read at a wavelength of 550 nm on a Titertek Multiscan ELISA plate reader, and a dose-response curve was constructed. […]

With `COc1cc2c(cc1OCCCCCOc1cc3c(cc1OC)C(=O)N1C=C(C)C[C@H]1C=N3)N=C[C@@H]1CC(C)=CN1C2=O` [Compound RelC] the IC50 was 0.425 nM.
